# In patent US4576956A, “Iodo propargylaminoisoxazoles as fungicides” (Shionogi & Co., Ltd., priority 1982, dated 1986):
# Assays:
# Botrytis cinerea = assay: Test B-1 Control Test of Botrytis Rot (Gray Mold) of Cucumber; format: in vivo; settings: 500 ppm, 3 days
# Description: Test B-1 Control Test of Botrytis Rot (Gray Mold) of Cucumber Seedlings of Cucumber (Cultivar: Matsukaze) were planted and grown in soil in vinyl-chloride cups of 9 cm in diameter in a greenhouse. […] The treated cucumbers were kept for 3 days in a greenhouse (20° C.) and then disease degrees were counted. Standard of Evaluation […] (2) A slight soaked lesion on the reverse of the test leaf . . . × 5 (3) A slight fade of the leaf . . . × 10 (4) The inoculated part was faded and the fading expanded erosively . . . × 20 [formula]
# Mycoplasma hyopneumonia = assay: growth inhibition of a swine enzootic pneumonia-causative bacteria; format: cell-based; settings: one range for the listed compounds, read-out: concentration inhibiting the growth
# Aspergillus fumigatus = assay: Test A-1 Anti-fungal Activity (MIC), microwell dilution; format: cell-based; settings: in vitro, 1×10^5 cells/ml
# Description: (§1) Test A-1 Anti-fungal Activity (MIC)
# (§2) The concentration of the test cells was 1×10^5 cells/ml and the activity was measured by a microwell dilution method. The structure of the test compounds is referred to in the Examples.
# Candida albicans M-9 = assay: as above; format: cell-based; settings: M9, C. albicans M-9, in vitro, 1×10^5 cells/ml
# Description: as §1, §2
# Trichophyton asteroides [1] = assay: as above; format: cell-based; settings: T. asteroides, in vitro, 1×10^5 cells/ml
# Description: as §1
# The following results (Table 1) were obtained in an anti-fungal activity test in vitro against Aspergillus fumigatus, Candida albicans M-9 and Trichophyton asteroides. The concentration of the test cells was 1×10^5 cells/ml and the activity was measured by a microwell dilution method. The structure of the test compounds is referred to in the Examples.
# Sclerotinia sclerotiorum = assay: Test B-2 Control Test to Sclerotinia Rot of Cucumber; format: in vivo; settings: 48 h, 2 days, read-out: Percent Disease Control
# Description: Test B-2 Control Test to Sclerotinia Rot of Cucumber
# Cucumber seedlings were sprayed with 2.5 ml of a test solution in the same manner as in Test B-1. Afterthe spraying, the seedlings were kept at 25°-26° C. for a day and three disks of 4 mm in diameter containing mycelia of Sclerotinia sclerotiorum were put on a primary leaf and then 10 μl of PD broth were dropped on the disks. The treated seedlings were kept ina greenhouse (20° C.) for 2 days and then the diameters of the disease spots were measured by a pair of slide callipers. [formula]
# [2] = system: Colletotrichum lagenarium; assay: Test B-4 Control Test to Anthracnose of Cucumber; format: in vivo; settings: 500 ppm, 3 + 3 days
# Description: Test B-4 Control Test to Anthracnose of Cucumber Each cucumber seedling was sprayed with 2.5 ml of a test solution in the same manner as in Test B-1. After the spraying, the seedlings were kept at 25°-26° C. for a day and were inoculated with five filter-paper disks of 6 mm in diameter saturated with a conidium suspension of Colletotrichum lagenarium at a concentration of 1×10^6 conidia/ml. The treated seedlings were kept in a greenhouse (25° C.) for 3 days and further kept at below 25° C. for 3 days. Standard of Evaluation The same as noted in Test B-3.
# Fusarium oxysporum = assay: Test B-6 Control Test to Damping-off of Cucumber; format: in vivo; settings: F*, 500 ppm, soil drench, 2 weeks
# Description: (§3) Test B-6 Control Test to Damping-off of Cucumber
# (§4) Twenty cucumber seeds were sown into sterilized soil (150 ml) in a pot of 9 cm in diameter. The fungi, Phythium aphanidermatum, Fusarium oxysporum and Rhizoctonia solani were cultured on a wheat bran medium for 5 days and an additional 2 days thereafter were mixed with sterilized soil. The surface of the sown spots was covered with the above culture medium. A test solution (30 ml) at a prescribed concentration was poured into each pot. The pots were kept in a greenhouse (28° C.) for 1 week in the case of Pythium and Rhizoctonia and for 2 weeks in the case of Fusarium.
# (§5) The disease degree was observed and percent disease degree was calculated by the following formula: […]
# (§6) (1) No germination . . . x 4
# (§7) (2) Germed but withered . . . x 3
# (§8) (3) Disordered in 1/3 or more . . . x 2
# (§9) (4) Disordered in less than 1/3 . . . x 1
# (§10) (5) Not damaged . . . x 0 [formula]
# (§11) The percent disease control was calculated in the same manner as in Test B-1.
# Pythium aphanidermatum = assay: Test B-6 Control Test to Damping-off of Cucumber; format: in vivo; settings: P*, 500 ppm, soil drench, 1 week
# Description: as §3, §4, §5, §6, §7, §8, §9, §10, §11
# Rhizoctonia solani = assay: Test B-6 Control Test to Damping-off of Cucumber; format: in vivo; settings: R*, 500 ppm, soil drench, 1 week
# Description: as §3, §4, §5, §6, §7, §8, §9, §10, §11
# Pyricularia oryzae = format: in vivo; settings: 500 ppm; rice plant blast, 24 hours + 7 days
# Mycoplasma gallisepticum = assay: minimum inhibition concentration; format: cell-based; settings: Mycoplasmoides gallisepticum, one range for the listed compounds
# Candida albicans = assay: Test A-2 Anti-fungal Activity (MCC); settings: 48 h, read-out: MCC (Minimal Cidal Concentration)
# Description: (§12) Some MCC (Minimal Cidal Concentration) values (Table 1) were obtained against Candida albicans and Trichophyton asteroides by the following method. After the MIC value was obtained by the microwell method, a loopful amount was picked up from the medium in which no growth of the fungus was observed, inoculated into a Subrouraud's glucose agar medium and incubated at 28° C. for 2 days in the case of C. albicans and for 7 days in the case of T. asteroides.
# Trichophyton asteroides [3] = assay: Test A-2 Anti-fungal Activity (MCC); settings: 168 h, read-out: MCC (Minimal Cidal Concentration)
# Description: as §12
# Sphaerotheca fuliginea = assay: Test B-5 Control Test to Powdery Mildew of Cucumber; format: in vivo; settings: 500 ppm, 2 weeks
# Description: Test B-5 Control Test to Powdery Mildew of Cucumber
# Each cucumber seedling was sprayed with 2.5 ml of a test solution. The seedlings were kept at 25°-26° C. for 1 day after the spraying and then sprayed with a conidium (1×10^5 conidia/ml) of Sphaerotheca fuliginea in a 100 ppm spreader solution (containing 20% polyoxyethylene glycol alkyl phenol ether and 12% lignin sulfonate) at a rate of 25 ml/20 cups.
# The seedlings were kept in a greenhouse (25° C.) for 2 weeks and then observed.
# Standard of Evaluation [formula]
# as §11
# [4] = system: Pseudoperonospora cubensis; assay: Test B-3 Control Test to Downy Mildew of Cucumber; format: in vivo; settings: 500 ppm, 7 days
# Description: Test B-3 Control Test to Downy Mildew of Cucumber
# Each cucumber seedling was sprayed with 2.5 ml of a test solution in the same manner as in Test B-1. After the spraying, the seedlings were kept at 25°-26° C. for a day and a zoosporangium suspension or Pseudoperonospora cubensis was inoculated at a rate of five spots per leaf on a primary leaf. The treated seedlings were kept in a greenhouse for 7 days and then observed.
# (2) Slight disease at the inoculation spot . . . X5
# (3) A disease spot in the same size as the inoculation spot (without spreading) . . . x10
# (4) A disease spot larger than the inoculation spot . . . x20
# Disease degree and percent disease control were calculated in the same manner as in Test B-1.
Structure (SMILES),Percent Disease Control (Botrytis cinerea) [%],MIC (Aspergillus fumigatus) [µg/mL],MIC (Candida albicans M-9) [µg/mL],MIC (Trichophyton asteroides [1]) [µg/mL],pest or weed control at 500 ppm (Sclerotinia sclerotiorum) [%],Percent Disease Control (Fusarium oxysporum) [%],Percent Disease Control (Pythium aphanidermatum) [%],Percent Disease Control (Rhizoctonia solani) [%],Percent Disease Control (Pyricularia oryzae) [%],also measured
CN(CC#CI)c1onc2c1CCCC2 [Comp. 15],100,–,–,–,–,–,–,–,–,MIC (Mycoplasma hyopneumonia): 3.13 to 12.5 µg/mL
Cc1noc(NCC#CI)c1C [Comp. 19],–,3.1,0.8,0.8,100,78,100,100,100,Percent Disease Control [2]: 100%; MIC (Mycoplasma gallisepticum): 6.25 to 12.5 µg/mL
Cc1noc(N(C)CC#CI)c1C [Comp. 20],–,0.8,0.8,0.8,100,57,100,100,100,MIC (Mycoplasma gallisepticum): 6.25 to 12.5 µg/mL; MFC (Candida albicans): 50 µg/mL; MFC (Trichophyton asteroides [3]): 3.1 µg/mL
CCN(CC#CI)c1onc(C)c1C [Comp. 21],–,1.6,1.6,1.6,–,–,–,–,–,–
Cc1noc(N(C)CC#CI)c1Cl [Comp. 24],100,0.8,0.2,0.4,100,93,100,100,–,Percent Disease Control (Sphaerotheca fuliginea): 100%; MFC (Candida albicans): 12.5 µg/mL; MFC (Trichophyton asteroides [3]): 3.1 µg/mL
CC(C)c1noc(N(C)CC#CI)c1Cl [Comp. 26],–,50,6.3,1.6,–,–,–,–,–,Percent Disease Control [4]: 100%; Percent Disease Control [2]: 100%; Percent Disease Control (Sphaerotheca fuliginea): 100%
CN(CC#CI)c1onc(-c2ccccc2)c1Cl [Comp. 27],–,–,–,–,–,–,–,–,100,–
"Clc1ccccc1C(c1ccccc1)(c1ccccc1)n1ccnc1 [Ref. Comp., Clotrimazole, reference compound]",–,12.5,6.3,0.2,–,–,–,–,–,MFC (Candida albicans): > 100 µg/mL; MFC (Trichophyton asteroides [3]): 6.3 µg/mL
"Cc1cc(N(C)CC#CI)no1 [compound 32, 3-(N-methyl-N-3-iodo-2-propynyl)amino-5-methylisoxazole]",100,1.6,1.6,3.1,100,50,100,100,98,Percent Disease Control (Sphaerotheca fuliginea): 100%
"Cc1onc(N(C)CC#CI)c1Cl [compound 33, 3-(N-methyl-N-3-iodo-2-propynyl)amino-4-chloro-5-methylisoxazole]",–,3.1,1.6,0.8,100,–,–,–,–,Percent Disease Control [4]: 100%
"Cc1onc(NCC#CI)c1Cl [compound 34, 3-(3-iodo-2-propynyl)-amino-4-chloro-5-methylisoxazole]",100,–,–,–,–,–,–,–,–,Percent Disease Control [4]: 100%; Percent Disease Control [2]: 100%; MIC (Mycoplasma hyopneumonia): 3.13 to 12.5 µg/mL
Cc1c(N(C)CC#CI)noc1-c1ccccc1 [compound 36],–,–,–,–,–,–,–,–,90,–
"Cc1noc(C)c1NCC#CI [compound 38, 3,5-dimethyl-4-(3-iodo-2-propynylamino)isoxazole]",–,3.1,0.8,0.8,–,–,–,–,–,–
